Data from article PMC6173406, “Design and evaluation of selective butyrylcholinesterase inhibitors based on Cinchona alkaloid scaffold” (PLoS ONE, 2018).
Read-outs that look alike come from different tables or passages of the source.

What was measured:
[1] = molecular target: T1, human BChE (Homo sapiens, UniProt P06276); assay: Reversible inhibition of human BChE, Ellman method with ATCh, Hunter-Downs analysis; assay type: biochemical; parameters: key to BChE type of inhibition: c, n and m stands for competitive, noncompetitive and mixed type of inhibition; c, n and m stands for competitive, noncompetitive and mixed type of inhibition; c, n and m stands for competitive, noncompetitive and mixed type of inhibition; details: for BChE Ks: enzyme-substrate (ATCh) dissociation constant derived from the inhibition kinetics with the compound; for Ki(AChE)/ Ki (BChE): inhibition selectivity, ratio of Ki constants for AChE and BChE; for BChE affinity lower compared to CD-(pBr): fold lower affinity than CD-(pBr); for BChE inhibition potency compared to CD-Met: fold more potent than CD-Met
T1 construct: gift of Dr. F. Nachon (Département de Toxicologie, Armed Forces Biomedical Research Institute, France)
T1 sequence (P06276 29-602): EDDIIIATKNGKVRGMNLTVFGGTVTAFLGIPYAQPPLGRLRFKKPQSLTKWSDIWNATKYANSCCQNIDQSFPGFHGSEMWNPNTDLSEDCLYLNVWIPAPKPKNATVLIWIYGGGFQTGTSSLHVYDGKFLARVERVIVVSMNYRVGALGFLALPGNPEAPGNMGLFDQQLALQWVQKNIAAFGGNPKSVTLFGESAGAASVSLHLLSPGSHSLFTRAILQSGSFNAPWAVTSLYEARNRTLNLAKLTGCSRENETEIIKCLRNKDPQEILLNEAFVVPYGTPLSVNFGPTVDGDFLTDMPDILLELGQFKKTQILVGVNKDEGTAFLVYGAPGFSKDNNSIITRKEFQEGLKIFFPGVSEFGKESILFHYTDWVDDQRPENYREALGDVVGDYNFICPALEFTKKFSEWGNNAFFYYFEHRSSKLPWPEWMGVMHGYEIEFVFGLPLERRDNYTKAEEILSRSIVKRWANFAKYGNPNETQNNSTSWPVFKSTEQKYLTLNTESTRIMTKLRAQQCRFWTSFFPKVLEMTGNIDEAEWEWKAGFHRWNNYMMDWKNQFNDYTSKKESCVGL
Method: (§1) Purified human BChE and recombinant human AChE were kindly provided by Dr. F. Nachon (Département de Toxicologie, Armed Forces Biomedical Research Institute, France). The concentration of enzymes (BChE: 5.6 μM; AChE: 0.20 μM) was determined as described previously. The concentrated stocks of enzymes were diluted in a phosphate sodium buffer 0.1 M (pH 7.4) containing 0.1% BSA.
(§2) Enzyme activities were measured spectrophotometrically by Ellman method at 412 nm using 0.30 mM DTNB as thiol reagent and ATCh (0.050–0.50 mM) as substrate in 0.1 M phosphate buffer, pH 7.4 [29, 30]. For the inhibition, the reaction mixture also contained cinchonidines or cinchonines (final concentrations 0.020–200 μM, depending on compound). In the case of compounds CD-(pCl) and CN-(pCl), the final content of DMSO was the same in enzyme activity measurement and in inhibition measurements, up to 0.32%. No side interactions of tested compounds with ATCh or DTNB were detected. Measurements were done at 25 °C on a Tecan Infinite M200Pro plate reader (Austria).
(§3) The reversible inhibition of BChE and AChE by cinchonines and cinchonidines was measured by determining the decrease of enzyme activity towards ATCh (0.050–0.50 mM) in their presence. The activities of the enzymes were measured at different substrate concentrations ([S]) in the absence (v0) and presence (vi) of given cinchonines and cinchonidines concentration ([I]) selected to inhibit the enzymes for 20–80%. At least three concentrations of inhibitors for each substrate concentration were used in at least two experiments. The apparent dissociation inhibition constant (Ki,app) was calculated using the Hunter-Downs equation and the linear regression analysis: Ki,app=vi/v0−vi⋅[I]=K(I)+K(I)/K(S)⋅[S] where y-intercept determines the enzyme-inhibitor dissociation constants (K(I)), while x-intercept determines the enzyme-substrate dissociation constant, K(S). The equation was used with the assumption that the substrate, due to relatively low substrate concentrations used in experiments, binds only to the catalytic site, while inhibitor can bind to both sites catalytic and peripheral site. In other words, if the inhibitor competes with substrate for binding to the catalytic site of the enzyme, Ki,app proportionally depend on the substrate concentration. […] The curve means that the inhibitor binds not only to the catalytic or peripheral site but also to intermediates of Michaelis type of the enzyme-substrate complex.

[2] = molecular target: T2, human AChE (Homo sapiens, UniProt P22303); assay: Reversible inhibition of human AChE, Ellman method with ATCh, Hunter-Downs analysis; assay type: biochemical; parameters: key to AChE type of inhibition: c, n and m stands for competitive, noncompetitive and mixed type of inhibition; c, n and m stands for competitive, noncompetitive and mixed type of inhibition; c, n and m stands for competitive, noncompetitive and mixed type of inhibition; details: for Ki: enzyme-inhibitor dissociation constant ± standard error, ATCh 0.050–0.50 mM, pH 7.4, 25 °C; for AChE Ks: enzyme-substrate (ATCh) dissociation constant derived from the inhibition kinetics with the compound; for AChE type of inhibition: symbol in brackets after Ki
T2 construct: gift of Dr. F. Nachon (Département de Toxicologie, Armed Forces Biomedical Research Institute, France)
T2 sequence (P22303 32-614): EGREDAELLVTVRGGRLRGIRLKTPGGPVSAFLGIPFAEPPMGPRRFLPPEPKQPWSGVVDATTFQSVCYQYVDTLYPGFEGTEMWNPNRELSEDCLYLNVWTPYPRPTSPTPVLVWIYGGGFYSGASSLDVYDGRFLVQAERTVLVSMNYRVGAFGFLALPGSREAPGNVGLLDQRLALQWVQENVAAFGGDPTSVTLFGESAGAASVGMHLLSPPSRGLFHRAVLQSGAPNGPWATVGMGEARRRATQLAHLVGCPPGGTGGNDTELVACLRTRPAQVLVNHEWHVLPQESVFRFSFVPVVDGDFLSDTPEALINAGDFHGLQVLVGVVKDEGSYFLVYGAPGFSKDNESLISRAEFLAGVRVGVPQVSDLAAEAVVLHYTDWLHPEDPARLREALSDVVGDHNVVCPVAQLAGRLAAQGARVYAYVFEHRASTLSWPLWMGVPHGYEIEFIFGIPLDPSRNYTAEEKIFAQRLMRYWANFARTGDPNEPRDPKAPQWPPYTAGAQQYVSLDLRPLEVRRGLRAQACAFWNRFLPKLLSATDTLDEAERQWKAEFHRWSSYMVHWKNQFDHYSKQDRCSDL
Method: as §1, §2, §3

[3] = enzyme-inhibitor dissociation constant ± standard error, ATCh 0.050–0.50 mM, pH 7.4, 25 °C
[4] = substrate concentrations higher than 0.35 mM, deviation from linearity in Hunter-Downs plot
[5] = ratio of Ki of cinchonine to Ki of the pseudo-enantiomeric cinchonidine

SMILES | Ki [1, 3] | BChE Ks [1] | Ki(AChE)/ Ki (BChE) [1] | BChE type of inhibition [1, 4] | BChE type of inhibition ([1]; symbol in brackets after Ki) | Ki [2] | AChE Ks [2] | AChE type of inhibition [2] | BChE affinity lower compared to CD-(pBr) [1] | BChE inhibition potency compared to CD-Met [1] | Ki [1] | AChE stereoselectivity Ki(CN/CD) [2, 5] | BChE binding preference para- over meta-positioned substituent ([1]; para compound compared to meta compound) | BChE stereoselectivity Ki(CN/CD) [1, 5]
C=CC1C[N+]2(Cc3ccc(C)cc3)CCC1CC2C(O)c1ccnc2ccccc12 (stereo not shown) [CD-(pCH3)] | 0.17 ± 0.02 µM | 0.38 ± 0.06 mM | 99 | mixed inhibition | m | 16 ± 1 µM | 1.3 ± 0.2 mM | c |  |  |  |  |  | 
C=CC1C[N+]2(Cc3cccc([N+](=O)[O-])c3)CCC1CC2C(O)c1ccnc2ccccc12 (stereo not shown) [CN-(mNO2)] | 4.2 ± 0.3 µM | 0.35 ± 0.04 mM | 2.1 |  | m | 8.6 ± 0.5 µM | 0.72 ± 0.10 mM | m |  |  |  |  |  | 
C=CC1C[N+]2(Cc3cccc(Br)c3)CCC1CC2C(O)c1ccnc2ccccc12 (stereo not shown) [CN-(mBr)] | 2.3 ± 0.2 µM | 0.48 ± 0.09 mM | 17 |  | m | 39 ± 2 µM | 0.73 ± 0.08 mM | m |  |  |  |  |  | 
C=CC1C[N+]2(C)CCC1CC2C(O)c1ccnc2ccccc12 (stereo not shown) [CD-Met] | 26 ± 4 µM | 0.70 ± 0.22 mM |  |  | c | 67 ± 6 µM | 0.70 ± 0.17 mM | c | approximately 730 times |  |  |  |  | 
C=CC1C[N+]2(C)CCC1CC2C(O)c1ccnc2ccccc12 (stereo not shown) [CN-Met] | 29 ± 4 µM | 0.35 ± 0.07 mM |  |  | c | 42 ± 4 µM | 0.32 ± 0.05 mM | c | approximately 730 times |  |  |  |  | 
C=CC1C[N+]2(Cc3ccc([N+](=O)[O-])cc3)CCC1CC2C(O)c1ccnc2ccccc12 (stereo not shown) [CD-(pNO2)] | 6 ± 0.5 µM | 0.38 ± 0.05 mM | 5.9 |  | c | 36 ± 2 µM |  | n |  | only five times higher |  |  |  | 
C=CC1C[N+]2(Cc3ccc(C)cc3)CCC1CC2C(O)c1ccnc2ccccc12 (stereo not shown) [CN-(pCH3), N-(4-methylbenzyl) cinchoninium bromide] | 3.1 ± 0.3 µM | 0.33 ± 0.05 mM | 13 |  | c | 42 ± 2 µM | 2.0 ± 0.2 mM | c |  |  |  |  |  | 
C=CC1C[N+]2(Cc3cccc(C)c3)CCC1CC2C(O)c1ccnc2ccccc12 (stereo not shown) [CN-(mCH3), N-(3-methylbenzyl) cinchoninium bromide] | 4.6 ± 0.4 µM | 0.53 ± 0.00 mM | 11 |  | m | 49 ± 2 µM | 0.66 ± 0.06 mM | m |  |  |  |  |  | 
C=CC1C[N+]2(Cc3ccc([N+](=O)[O-])cc3)CCC1CC2C(O)c1ccnc2ccccc12 (stereo not shown) [CN-(pNO2)] | 7.6 ± 0.7 µM | 0.32 ± 0.04 mM | 6.6 |  | c | 51 ± 2 µM |  | n |  |  |  |  |  | 
C=CC1C[N+]2(Cc3cccc(Cl)c3)CCC1CC2C(O)c1ccnc2ccccc12 (stereo not shown) [CD-(mCl), N-(3-chlorobenzyl) cinchonidinium chloride] | 0.24 ± 0.01 µM | 0.53 ± 0.05 mM | 95 |  | m | 23 ± 1 µM | 0.74 ± 0.08 mM | c |  |  |  |  |  | 
C=CC1C[N+]2(Cc3cccc(C)c3)CCC1CC2C(O)c1ccnc2ccccc12 (stereo not shown) [CD-(mCH3), N-(3-methylbenzyl) cinchonidinium bromide] | 0.077 ± 0.006 µM | 0.52 ± 0.08 mM | 39 |  | m | 3 ± 0.3 µM | 0.63 ± 0.14 mM | m |  |  | ≤ 0.1 µM | 16 |  | 
C=CC1C[N+]2(Cc3cccc(Cl)c3)CCC1CC2C(O)c1ccnc2ccccc12 (stereo not shown) [CN-(mCl)] | 5.4 ± 0.5 µM | 0.63 ± 0.12 mM | 10 |  | m | 56 ± 8 µM | 0.19 ± 0.03 mM | c |  |  |  |  |  | 
C=CC1C[N+]2(Cc3ccc(Br)cc3)CCC1CC2C(O)c1ccnc2ccccc12 (stereo not shown) [CD-(pBr), N-para-bromobenzyl cinchonidinium bromide] | 0.038 ± 0.005 µM | 0.34 ± 0.07 mM | 510 |  | c | 19 ± 1 µM | 2.2 ± 0.524 mM | m |  | 700 times | ≤ 0.1 µM |  | 16 times | 92
C=CC1C[N+]2(Cc3ccc(Cl)cc3)CCC1CC2C(O)c1ccnc2ccccc12 (stereo not shown) [CD-(pCl)] | 0.1 ± 0.01 µM | 0.42 ± 0.05 mM | 350 |  | c | 37 ± 4 µM |  | n |  |  | ≤ 0.1 µM |  |  | 
C=CC1C[N+]2(Cc3ccc(Br)cc3)CCC1CC2C(O)c1ccnc2ccccc12 (stereo not shown) [CN-(pBr)] | 3.5 ± 0.3 µM | 0.44 ± 0.07 mM | 8.8 |  | c | 31 ± 1 µM | 2.7 ± 0.9 mM | m |  |  |  |  |  | 
C=CC1C[N+]2(Cc3ccc(Cl)cc3)CCC1CC2C(O)c1ccnc2ccccc12 (stereo not shown) [CN-(pCl)] | 6.2 ± 0.8 µM | 0.49 ± 0.12 mM | 6.4 | mixed inhibition | m | 40 ± 4 µM |  | n |  |  |  |  |  | 
C=C[C@H]1C[N@@]2CC[C@H]1C[C@@H]2[C@@H](O)c1ccnc2ccccc12 [CN, cinchonine, reference compound] | 4.9 ± 1.4 µM | 0.50 ± 0.27 mM |  |  | c | 34 ± 1 µM | 0.25 ± 0.01 mM | c |  |  |  |  |  | 
